The nature of the series: gradient 5% acetonitrile 3 min, to 50% in 2 min, to 85% in 15 min, held 3 min, 100 µL/min. The conditions noted are these: column: Zorbax Extend-C18 2.1 x 50 mm; eluents: water / acetonitrile, 0.1% formic acid. A digest of the protocol:
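Each retention time is based on an adduct peak selected computationally and verified by manual inspection. Measurements used HPLC–quadrupole time-of-flight mass spectrometry in positive and negative ionization mode on mixtures of ~100 pure standards. Chromatography ran on a Zorbax Extend-C18 column (2.1 × 50 mm, 1.8 μm) at 100 μL/min with water and acetonitrile, each containing 0.1% formic acid, and dead and dwell volumes of 40 μL and 900 μL.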
Regarding `CC(=O)Nc1cccc(NS(=O)(=O)c2ccc3c(c2)OCCCO3)c1`, the RP-LC retention time is 676 s.

With `COc1cccc(-c2nc(COc3cc(C)c4c(C)nn(C)c4n3)c(C)o2)c1OC`, the RP-LC retention time came out at 1070 s.

Take `CC(C)(O)CC(=O)NCCn1ccc2ncnc(Nc3ccc(Oc4cccc(C(F)(F)F)c4)c(Cl)c3)c21`: the RP-LC retention time amounted to 802 s.

On to `CCCN1C(=O)c2cc(C(=O)NCc3ccc(C)cc3)nn2CC1(C)C(=O)NC1CCCC1` (stereo not drawn), for which the RP-LC retention time amounted to 854 s.

Take `COc1ccc(N2CCN(c3cc(SCC(=O)Nc4cc(OC)cc(OC)c4)ncn3)CC2)cc1`: the RP-LC retention time is 814 s.

In turn, `CCc1ccc(-c2cn3ccn(-c4ccc(F)cc4)c(=O)c3n2)cc1` registered an RP-LC retention time of 900 s.

The molecule `COc1ccc(CCNC(=O)N2CC(c3nc(-c4cccs4)no3)C2)cc1` showed an RP-LC retention time of 773 s.

As for `O=C(NC1CCCC1)C1CCN(S(=O)(=O)c2cc(C(=O)N3CCCC3)cs2)CC1`, the RP-LC retention time was 644 s.

Turning to `CCc1noc(-c2cnc3nc(C)ccc3c2Nc2ccc3c(c2)OCO3)n1`, the RP-LC retention time is 720 s.

`CCN1C(=O)COc2ccc(-c3nc(NC(=O)c4cc(OC)c(OC)c(OC)c4)sc3C)cc21` showed an RP-LC retention time of 1020 s.

Consider `CC(C)CN1CCN(C(=O)CN2CCN(Cc3ccc(F)cc3)C2=O)CC1`, for which the RP-LC retention time worked out at 602 s.

For the molecule `CCOC(=O)c1c(C)[nH]c(C(=O)N2CCCC(C(=O)NCc3ccc(C)o3)C2)c1C` (stereo not drawn), the RP-LC retention time amounted to 790 s.

The molecule `Cc1cc(N2CCN(S(=O)(=O)c3ccc(F)c(F)c3)CC2)nc(N2CCCCC2)n1` registered an RP-LC retention time of 775 s.

As for `CCOC(=O)c1nc(NCCN2CCOCC2)c2ccccc2n1`, the RP-LC retention time was found to be 584 s.

Molecule `Cc1cc(F)ccc1NC(=O)CN1C(=O)NC2(CCCCC2)C1=O` showed an RP-LC retention time of 764 s.

For the molecule `Cc1cc(C(=O)N2CCN(c3ccccc3F)CC2)n[nH]1`, the RP-LC retention time worked out at 714 s.

In turn, `COc1ccc2nc(C(=O)NCc3ccc(Cl)cc3)cn2n1` gave an RP-LC retention time of 830 s.

The molecule `COc1ccc(NC(=O)c2ccc(N3C(=O)CCC3=O)cc2)c2ccccc12` came in with an RP-LC retention time of 691 s.

As for `CCOc1ccc(-c2nnc(SCC(=O)N3c4ccccc4CC3C)o2)cc1` (stereo not drawn), the RP-LC retention time worked out at 1110 s.

On to `Cc1ccc(CNC(=O)c2nnc(-c3ccc(S(=O)(=O)N(C)C)cc3)o2)cc1`, for which the RP-LC retention time is 892 s.

With `O=C(c1ccccc1)C(c1ccccc1)C1(O)C(=O)Nc2c(Cl)cc(Cl)cc21` (stereo not drawn), the RP-LC retention time came out at 949 s.

As to `C=CCNC(=O)Cc1c(C)n(CC=C)c2nc(-c3ccccc3)nn2c1=O`, the RP-LC retention time is 740 s.

Molecule `CCCNC(=O)CCc1nc2ccccc2n(CC(=O)Nc2ccc(CC)cc2)c1=O` had an RP-LC retention time of 852 s.

Turning to `CCN(CC)C(=O)c1ccc(-c2nc3cc(NS(=O)(=O)c4ccccc4Cl)ccc3n2C)cc1`, the RP-LC retention time is 695 s.

In turn, `COc1ccc(S(=O)(=O)Nc2ccc(-c3cn4ccc(C)nc4n3)cc2)cc1C` had an RP-LC retention time of 661 s.

Molecule `CCc1nnc(-c2ccc3ccn(CC(=O)Nc4cccc(C(C)=O)c4)c3c2)o1` had an RP-LC retention time of 788 s.

`COc1ccc(C2(CNC(=O)Cc3cccs3)CCOCC2)cc1` yielded an RP-LC retention time of 734 s.

Molecule `COc1ccc(OC)c(NC(=O)c2cc3nc(-c4cccs4)cc(C(F)(F)F)n3n2)c1` displayed an RP-LC retention time of 1200 s.

`Cc1nc(-c2ccccc2)sc1C(=O)N1CCCC1` yielded an RP-LC retention time of 824 s.

Regarding `COc1cc(NC(=O)N2CCCC2c2nc(-c3ccccc3OC)no2)cc(OC)c1` (stereo not drawn), the RP-LC retention time came to 849 s.

The molecule `CC(=O)N1CCN(C(=O)CN2C(=O)C3CCCCN3c3ccc(S(=O)(=O)N(C)C)cc32)CC1` (stereo not drawn) had an RP-LC retention time of 680 s.

In the case of `COC(=O)c1sc2ccc(NC(=O)C3CCN(S(=O)(=O)N4CCOCC4)CC3)cc2c1OC`, the RP-LC retention time was 853 s.

In the case of `Clc1ccc(-c2csc(NCc3ccccc3)n2)cc1`, the RP-LC retention time was determined as 1170 s.

On to `Cc1cccc(N2C(=O)CN(S(=O)(=O)c3ccccc3)CC2(C)C(=O)NC2CCCC2)c1C` (stereo not drawn), for which the RP-LC retention time was found to be 968 s.

`Cc1nn(C)c(C)c1S(=O)(=O)N1CCC(n2c(C)cnc2-c2ccncc2)C1` (stereo not drawn) showed an RP-LC retention time of 588 s.

`CNS(=O)(=O)c1cccnc1Nc1ccc(F)c(Cl)c1` had an RP-LC retention time of 973 s.

On to `Cc1cccc(NC(=O)Nc2cnn(-c3ncncc3N3CCC(C)CC3)c2)c1`, for which the RP-LC retention time is 761 s.

As to `Cc1nc(-c2csc(S(=O)(=O)N3CCCC(C(=O)Nc4cccc5c4CCCC5)C3)c2)no1` (stereo not drawn), the RP-LC retention time worked out at 1110 s.

Take `O=C(Cc1ccccc1Br)NC1CCN(c2cc(-c3ccc(Cl)cc3)[nH]n2)C1` (stereo not drawn): the RP-LC retention time came to 831 s.

In turn, `Clc1ccc(-c2nc(N3CCCCC3)c3ccccc3n2)cc1` registered an RP-LC retention time of 818 s.

As for `CCCn1cnc2cc(CNC(=O)c3ccc(C(C)C)cc3)ccc21`, the RP-LC retention time is 690 s.

Consider `CCCN1CCN(C(=O)C2CCN(S(=O)(=O)c3cc(C(=O)N4CCCC4)n(C)c3)CC2)CC1`, for which the RP-LC retention time is 574 s.

Regarding `CCOc1ccc(N2C(=O)C3N=NN(Cc4nc(-c5cccc(C)c5)no4)C3C2=O)cc1` (stereo not drawn), the RP-LC retention time was found to be 1040 s.

Molecule `O=C(Nc1ccc(Br)cc1F)c1ccc(N2CCOCC2)nn1` showed an RP-LC retention time of 899 s.

As for `Cc1ccc(C)c(NC(=O)CN2C(=O)CCc3cc(S(=O)(=O)N4CCCCC4C)ccc32)c1` (stereo not drawn), the RP-LC retention time amounted to 983 s.

`CCN1CCN(c2cc(C)c3cc(NC(=O)CC(C)C)ccc3n2)CC1`: the RP-LC retention time was 560 s.

`O=c1n(Cc2ccccc2)nc2n1CCN(S(=O)(=O)c1ccc3c(c1)OCCO3)CC2`: the RP-LC retention time is 818 s.

Regarding `COc1ccc(Cl)cc1S(=O)(=O)N1CCC(C(=O)Nc2ccccc2F)CC1`, the RP-LC retention time came to 921 s.

`Cc1nn(CC(=O)NCCCN2CCCC2=O)c(=O)c2nn(-c3ccccc3)c(C)c12` returned an RP-LC retention time of 642 s.

On to `O=c1ccc(-n2ccnc2)nn1CCNS(=O)(=O)Cc1cc(F)ccc1F`, for which the RP-LC retention time amounted to 555 s.

`O=C(Nc1ccc2c(c1)N(C(=O)C1CCCO1)CC2)c1c(F)cccc1Cl` (stereo not drawn) registered an RP-LC retention time of 731 s.

Molecule `O=C(Nc1ccc(F)c(Cl)c1)NC1CCCN(c2cc(-c3ccncc3)[nH]n2)C1` (stereo not drawn) gave an RP-LC retention time of 657 s.

Regarding `COc1ccc(NC(=O)N2CCC(n3c(-c4ccco4)nc4cccnc43)C2)cc1Cl` (stereo not drawn), the RP-LC retention time is 753 s.

`Cc1ccc(N2CCC(NC(=O)C3CCC3)C2=O)cc1C` (stereo not drawn): the RP-LC retention time worked out at 762 s.

In turn, `Cc1cc(Cl)ccc1OCCCC(=O)NO` came in with an RP-LC retention time of 801 s.

For the molecule `O=C1CC(c2cc(F)cc(F)c2)Cc2nc(N3CCN(c4ccccc4F)CC3)ncc21` (stereo not drawn), the RP-LC retention time worked out at 1300 s.

`CCN1CCN(c2nnc(-c3nc(C4CC4)no3)c3ccccc23)CC1` came in with an RP-LC retention time of 622 s.

In turn, `Cc1noc(C2CN(C(=O)Nc3ccc4c(c3)CCC4)CC23CCOCC3)n1` (stereo not drawn) yielded an RP-LC retention time of 777 s.

On to `O=c1ccc(N2CCCN(S(=O)(=O)c3cc(F)ccc3F)CC2)nn1-c1ccccc1`, for which the RP-LC retention time turned out to be 853 s.

In turn, `CCC1CN2C=NC(N3CCN(C(=O)NCc4cccc(F)c4)CC3)=CC2=N1` (stereo not drawn) showed an RP-LC retention time of 615 s.

In turn, `CCc1nc2c(c(=O)n1CC(=O)NCc1ccccc1)CN(Cc1ccccc1)CC2` had an RP-LC retention time of 629 s.

Molecule `O=C(CCn1c(N2CCCC2)nc2ccsc2c1=O)N1CCN(c2ccccc2)CC1` came in with an RP-LC retention time of 814 s.

Turning to `O=C(NCCc1ccco1)C1CCCN(c2ccc(=O)n(-c3ccc(F)cc3)n2)C1` (stereo not drawn), the RP-LC retention time is 773 s.

Molecule `Cc1ccc(S(=O)(=O)N2CCC3(CC2)NCCN=C3NCc2ccccc2Cl)cc1C` yielded an RP-LC retention time of 768 s.

For `COc1ccc(Cc2nn3c(CSc4ccccc4)nnc3s2)cc1`, the RP-LC retention time amounted to 937 s.

For `COc1ccc(-c2nnc(CC(=O)NCC3CC3)o2)cc1`, the RP-LC retention time was 732 s.

For `COc1cc(C(=O)N(C)CCc2noc(C3CCCCC3)n2)cc(OC)c1OC`, the RP-LC retention time was 814 s.

`NC(=O)CSc1nnc(-c2cccc(Cl)c2)o1`: the RP-LC retention time is 696 s.

`COc1ccc(C)cc1NC(=O)N1CCC2(CC1)NC(=O)c1ccc(Cl)cc1N2C` came in with an RP-LC retention time of 884 s.

The molecule `COc1ccc(Br)cc1CNC(=O)C1CCCN(c2ccc(N3CCOCC3)nn2)C1` (stereo not drawn) showed an RP-LC retention time of 668 s.

Molecule `CCOC(=O)c1sc2nc(C)cc(C)c2c1N(C(C)=O)C(C)=O` displayed an RP-LC retention time of 860 s.

On to `O=C(CN1CCN(Cc2ccccc2)C1=O)NCc1ccc(F)cc1Cl`, for which the RP-LC retention time was 833 s.

`CCOc1ccc(NS(=O)(=O)c2cc(C(=O)N3CCN(c4ccc(F)cc4)CC3)n[nH]2)cc1` returned an RP-LC retention time of 876 s.

For the molecule `COc1ccc(-c2noc(C3CC(=O)N(c4cc(Cl)ccc4OC)C3)n2)c(OC)c1` (stereo not drawn), the RP-LC retention time was 1010 s.

`COC(=O)c1ccc(-c2nc3cnccn3c2Nc2cccc(C(=O)OC)c2)cc1` had an RP-LC retention time of 822 s.

In turn, `CC1CCN(C(=O)Cc2nnc3cc(-c4nc(C(C)C)no4)ccn23)CC1` came in with an RP-LC retention time of 770 s.

Regarding `O=C1CCCN1CCCN1C(=O)[C@H]2CN(Cc3ccccc3Cl)C[C@H]2C1=O`, the RP-LC retention time turned out to be 596 s.

`Cn1c(=O)c2c(ncn2CC(=O)N2CCCC(c3nc(C4CCOCC4)no3)C2)n(C)c1=O` (stereo not drawn): the RP-LC retention time amounted to 613 s.

The record behind these values is the METLIN SMRT retention time set (Domingo-Almenara et al. 2019).
